This passage reports viability and IC50 results from publication PMC9181938, “Fluorinated Analogues of Lepidilines A and C: Synthesis and Screening of Their Anticancer and Antiviral Activity” (Molecules, 2022).

Where two headings read alike, the source gives them in different places. A value given as a limit tells only on which side of the number the result lay.

The nature of series [1]: Cytotoxicity screening at 10 µM (MTT). The format is cell-based, Mus musculus. The settings on record: Mus musculus, NCTC clone 929 cells, read-out: Cell line (viability %) NCTC clone 929.
Series [2] concerns Human adenovirus 5 (AdV5). Put plainly: Antiviral activity assay (0.1–1000 µM), IC50. In kind it is cell-based. As to conditions: Human mastadenovirus C; Table S4, range 0.1-1000 µM, AdV5; read-out: IC50 (M) AdV5. The method in brief:
(§1)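 Confluent cell monolayers were infected (AdV5 and EMCV MOI 0.005, HPIV-3 MOI 0.01, 1-h adsorption; HCMV 20 PFU/well, 2-h adsorption), then incubated at 37 °C with compounds (0.1–1000 µM) in 2% FBS MEM until CPE appeared. Infection was read by MTT or, for HCMV, plaque counting. IC50 was the concentration halving plaques versus untreated infected controls.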

Series [3] deals with Encephalomyocarditis virus (EMCV). Description: Antiviral activity assay (0.1–1000 µM), IC50. The settings on record: Cardiovirus A, Table S4, range 0.1-1000 µM, read-out: IC50 (M) EMCV. In kind it is cell-based. The method in brief:
as §1

Series [4] relates to Human parainfluenza virus type 3 (HPIV-3). Description: Antiviral activity assay (0.1–1000 µM), IC50. The format is cell-based. As to conditions: Human respirovirus 3, Table S4, range 0.1-1000 µM, HPIV-3; read-out: IC50 (M) HPIV-3. The procedure, abridged:
as §1

Series [5] in a line: Cytotoxicity screening at 10 µM (MTT). The settings on record: Macaca mulatta, LLC-MK2 cells, read-out: Cell line (viability %) LLC-MK2. In kind it is cell-based, Macaca mulatta.
Series [6] in a line: Cytotoxicity screening at 10 µM (MTT). The format is cell-based, Human. The settings on record: human, MRC-5 cells, read-out: Cell line (viability %) MRC-5.

By viability is commonly meant the share of living cells, or the viability signal relative to a control. The IC50 is the concentration that inhibits the measured activity by half. On to `Cc1c(C)n(Cc2ccccc2)c(=S)n1Cc1ccccc1` [Compound 10a], for which the viability at 48 h, 10 µM stood at 93.8% in series [1], 64.9% in series [5] and 74.3% in series [6]. For the same compound, the IC50 in series [2] is more than 1.69e-05 M; in series [3] it was more than 4.6e-05 M; in series [4] it was more than 1.62e-05 M.
